Experimental data taken from US8119681B2, “2-[1-phenyl-5-hydroxy or methoxy-4alpha-methyl-hexahydrocyclopenta [ƒ]indazole-5-YL]ethyl phenyl derivatives as glucocorticoid receptor ligands” (Merck Sharp & Dohme Corp., priority 2006, dated 2012).

These compounds were tested against T1, human GR (Homo sapiens, UniProt P04150) (assay: Transrepression Assay (GITAR), TNFα-β-lactamase reporter gene in U937 cells). Conditions: U-937; 100 nM dexamethasone = 100% activity; read-out: maximal activity in the transrepression assay.
T1 sequence (P04150 1-777): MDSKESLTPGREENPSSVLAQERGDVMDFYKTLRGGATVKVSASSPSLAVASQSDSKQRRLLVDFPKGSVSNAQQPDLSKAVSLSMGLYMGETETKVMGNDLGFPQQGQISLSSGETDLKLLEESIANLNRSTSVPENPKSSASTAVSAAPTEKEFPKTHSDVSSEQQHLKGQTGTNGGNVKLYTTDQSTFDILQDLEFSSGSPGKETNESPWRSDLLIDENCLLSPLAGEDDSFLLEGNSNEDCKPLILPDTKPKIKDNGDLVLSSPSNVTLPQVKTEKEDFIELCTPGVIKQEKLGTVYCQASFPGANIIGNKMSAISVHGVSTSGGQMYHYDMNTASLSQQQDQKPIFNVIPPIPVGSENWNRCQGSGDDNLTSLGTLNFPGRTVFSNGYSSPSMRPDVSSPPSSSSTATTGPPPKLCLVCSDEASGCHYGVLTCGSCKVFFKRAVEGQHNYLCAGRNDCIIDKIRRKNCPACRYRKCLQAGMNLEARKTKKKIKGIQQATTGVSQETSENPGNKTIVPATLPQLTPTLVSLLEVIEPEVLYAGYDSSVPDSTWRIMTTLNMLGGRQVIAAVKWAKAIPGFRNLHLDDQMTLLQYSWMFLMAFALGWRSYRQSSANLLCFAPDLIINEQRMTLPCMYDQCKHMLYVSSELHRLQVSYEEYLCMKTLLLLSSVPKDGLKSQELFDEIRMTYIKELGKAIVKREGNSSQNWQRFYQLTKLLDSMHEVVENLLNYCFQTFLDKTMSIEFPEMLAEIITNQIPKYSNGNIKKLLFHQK
Type: cell-based
Parameters: U937 cells contain an endogenous glucocorticoid receptor (GR); endogenous in cells; host or cells: U937 cells stably transfected with the TNF-α promoter/β-lactamase reporter only
Text: Transrepression Assay (GITAR)
This assay assesses the ability of test compounds to control transcription from the TNFα-β-lactamase reporter gene in U937 cells, a human myelomonocytic leukemia cell line that naturally expresses the human GR. The assay measures compound dependent-repression of the TNFa promoter linked to a reporter gene.
The human U937 cells that had been stably transfected with the TNF-α promoter driving β-lactamase are used for this assay. U937 cells contain an endogenous glucocorticoid receptor (GR). […] 50,000 cells/well are plated in 96 well black-walled plates the day of assay. Test compounds are added 10 μL/well, and cells are incubated at 37° C. for 30˜45 min. For assaying compounds, first dilute 1:10 in DMSO to make 1 mM, then further dilute 1:100 in medium to make 10× stock prior to adding to the cells. Add 50 ng/ml PMA (Sigma, cat# P8139) 10 μL/well to a final concentration 5 ng/ml, and 1 μg/ml LPS (Sigma, cat# L4130) 10 μL/well to a final concentration 100 ng/ml. Incubate cells at 370 C overnight for ˜18 hr. PMA is stored frozen as 100 μg/ml stock in DMSO. Dilute 1:10 in DMSO for a working stock of 10 μg/ml and store at −20 C. For assaying, dilute the 10 μg/ml working stock 1:200 in medium to make a 10× solution (50 ng/ml). Store frozen LPS at 1 mg/ml in PBS, dilute 1:1000 in medium to make 10× (1 μg/ml) for the assay. Add 6× loading buffer (CCF2-AM) 20 μL/well, and incubate at room temperature for 70˜90 min. […] The activity repressed by 100 nM dexamethasone alone is set as 100% activity.

Structure (SMILES)	Emax
C[C@]12Cc3cnn(-c4ccc(F)cc4)c3C=C1CC[C@@]2(O)CCc1cccc(F)c1CNS(=O)(=O)c1ccccc1F [Example 80, 2-fluoro-N-(2-fluoro-6-{2-[(4αS,5R)-1-(4-fluorophenyl)-5-hydroxy-4α-methyl-1,4,4α,5,6,7-hexahydrocyclopenta[f]indazol-5-yl]ethyl}benzyl)benzenesulfonamide]	5 to 100%
C[C@]12Cc3cnn(-c4ccc(F)cc4)c3C=C1CC[C@@]2(O)CCc1cccc(F)c1CNS(=O)(=O)c1cccc(C#N)c1 [Example 81, 3-cyano-N-(2-fluoro-6-{2-[(4αS,5R)-1-(4-fluorophenyl)-5-hydroxy-4α-methyl-1,4,4α,5,6,7-hexahydrocyclopenta[f]indazol-5-yl]ethyl}benzyl)benzenesulfonamide]	5 to 100%
C[C@]12Cc3cnn(-c4ccc(F)cc4)c3C=C1CC[C@@]2(O)CCc1cccc(F)c1CNS(=O)(=O)c1cccnc1 [Example 82, N-(2-fluoro-6-{2-[(4αS,5R)-1-(4-fluorophenyl)-5-hydroxy-4α-methyl-1,4,4α,5,6,7-hexahydrocyclopenta[f]indazol-5-yl]ethyl}benzyl)pyridine-3-sulfonamide]	5 to 100%
C[C@]12Cc3cnn(-c4ccc(F)cc4)c3C=C1CC[C@@]2(O)CCc1ccccc1CNS(C)(=O)=O [Example 87, N-(2-{2-[(4αS,5R)-1-(4-fluorophenyl)-5-hydroxy-4α-methyl-1,4,4α,5,6,7-hexahydrocyclopenta[f]indazol-5-yl]ethyl}benzyl)methanesulfonamide]	5 to 100%
C[C@]12Cc3cnn(-c4ccc(F)cc4)c3C=C1CC[C@@]2(O)CCc1ccccc1CNS(=O)(=O)CC(F)(F)F [Example 90, 2,2,2-trifluoro-N-(2-{2-[(4αS,5R)-1-(4-fluorophenyl)-5-hydroxy-4α-methyl-1,4,4α,5,6,7-hexahydrocyclopenta[f]indazol-5-yl]ethyl}benzyl)ethanesulfonamide]	5 to 100%
C[C@]12Cc3cnn(-c4ccc(F)cc4)c3C=C1CC[C@@]2(O)CCc1cccc(F)c1CNS(=O)(=O)c1ccco1 [Example 92, N-(2-fluoro-6-{2-[(4αS,5R)-1-(4-fluorophenyl)-5-hydroxy-4α-methyl-1,4,4α,5,6,7-hexahydrocyclopenta[f]indazol-5-yl]ethyl}benzyl)furan-2-sulfonamide]	5 to 100%
Cn1cnc(S(=O)(=O)NCc2c(F)cccc2CC[C@]2(O)CCC3=Cc4c(cnn4-c4ccc(F)cc4)C[C@@]32C)c1 [Example 93, N-(2-fluoro-6-{2-[(4αS,5R)-1-(4-fluorophenyl)-5-hydroxy-4α-methyl-1,4,4α,5,6,7-hexahydrocyclopenta[f]indazol-5-yl]ethyl}benzyl)-1-methyl-1H-imidazole-4-sulfonamide]	5 to 100%
C[C@]12Cc3cnn(-c4ccc(F)cc4)c3C=C1CC[C@@]2(O)CCc1cccc(F)c1CNS(=O)(=O)c1ccccc1C#N [Example 94, 2-cyano-N-(2-fluoro-6-{2-[(4αS,5R)-1-(4-fluorophenyl)-5-hydroxy-4α-methyl-1,4,4α,5,6,7-hexahydrocyclopenta[f]indazol-5-yl]ethyl}benzyl)benzenesulfonamide]	5 to 100%
C[C@H](NS(=O)(=O)C1CC1)c1ccccc1CC[C@]1(O)CCC2=Cc3c(cnn3-c3ccc(F)cc3)C[C@@]21C [Example 95, N-[(1S)-1-(2-{2-[(4αS,5R)-1-(4-fluorophenyl)-5-hydroxy-4α-methyl-1,4,4α,5,6,7-hexahydrocyclopenta[f]indazol-5-yl]ethyl}phenyl)ethyl]cyclopropanesulfonamide]	5 to 100%
C[C@@H](NS(=O)(=O)CC(F)(F)F)c1c(F)cccc1CC[C@]1(O)CCC2=Cc3c(cnn3-c3ccc(F)cc3)C[C@@]21C [Example 96, 2,2,2-trifluoro-N-[(1R)-1-(2-fluoro-6-{2-[(4αS,5R)-1-(4-fluorophenyl)-5-hydroxy-4α-methyl-1,4,4α,5,6,7-hexahydrocyclopenta[f]indazol-5-yl]ethyl}phenyl)ethyl]ethanesulfonamide]	5 to 100%
C[C@]12Cc3cnn(-c4ccc(F)cc4)c3C=C1CC[C@@]2(O)CCc1cccc(F)c1CNS(=O)(=O)CS(C)(=O)=O [Example 97, N-(2-fluoro-6-{2-[(4αS,5R)-1-(4-fluorophenyl)-5-hydroxy-4α-methyl-1,4,4α,5,6,7-hexahydrocyclopenta[f]indazol-5-yl]ethyl}benzyl)-1-(methylsulfonyl)methanesulfonamide]	5 to 100%
C[C@]12Cc3cnn(-c4ccc(F)cc4)c3C=C1CC[C@@]2(O)CCc1cccc(F)c1CNS(C)(=O)=O [Example 98, N-(2-fluoro-6-{2-[(4αS,5R)-1-(4-fluorophenyl)-5-hydroxy-4α-methyl-1,4,4α,5,6,7-hexahydrocyclopenta[f]indazol-5-yl]ethyl}benzyl)methanesulfonamide]	5 to 100%
C[C@H](NS(=O)(=O)CC(F)(F)F)c1c(F)cccc1CC[C@]1(O)CCC2=Cc3c(cnn3-c3ccc(F)cc3)C[C@@]21C [Example 99, 2,2,2-trifluoro-N-[(1S)-1-(2-fluoro-6-{2-[(4αS,5R)-1-(4-fluorophenyl)-5-hydroxy-4α-methyl-1,4,4α,5,6,7-hexahydrocyclopenta[f]indazol-5-yl]ethyl}phenyl)ethyl]ethanesulfonamide]	5 to 100%
C[C@]12Cc3cnn(-c4ccc(F)cc4)c3C=C1CC[C@@]2(O)CCc1cccc(F)c1C1(NS(=O)(=O)C2CC2)CC1 [Example 100, N-[1-(2-fluoro-6-{2-[(4αS,5R)-1-(4-fluorophenyl)-5-hydroxy-4α-methyl-1,4,4α,5,6,7-hexahydrocyclopenta[f]indazol-5-yl]ethyl}phenyl)cyclopropyl]cyclopropanesulfonamide]	5 to 100%
C[C@]12Cc3cnn(-c4ccc(F)cc4)c3C=C1CC[C@@]2(O)CCc1cccc(F)c1[C@@H](NS(=O)(=O)CC(F)(F)F)C(F)(F)F [Example 101, 2,2,2-trifluoro-N-[(1R)-2,2,2-trifluoro-1-(2-fluoro-6-{2-[(4αS,5R)-1-(4-fluorophenyl)-5-hydroxy-4α-methyl-1,4,4α,5,6,7-hexahydrocyclopenta[f]indazol-5-yl]ethyl}phenyl)ethyl]ethanesulfonamide]	5 to 100%
C[C@]12Cc3cnn(-c4ccc(F)cc4)c3C=C1CC[C@@]2(O)CCc1cccc(F)c1C1(NS(=O)(=O)CC(F)(F)F)CC1 [Example 102, 2,2,2-trifluoro-N-[1-(2-fluoro-6-{2-[(4αS,5R)-1-(4-fluorophenyl)-5-hydroxy-4α-methyl-1,4,4α,5,6,7-hexahydrocyclopenta[f]indazol-5-102yl]ethyl}phenyl)cyclopropyl]ethanesulfonamide]	5 to 100%
C[C@]12Cc3cnn(-c4ccc(F)cc4)c3C=C1CC[C@@]2(O)CCc1ccccc1CNCC1CC1 [Example 103, (4αS,5R)-5-[2-(2-{[(cyclopropylmethyl}amino]methyl}phenyl)ethyl]-1-(4-fluorophenyl)-4α-methyl-1,4,4α,5,6,7-hexahydrocyclopenta[f]indazol-5-ol]	5 to 100%
C[C@]12Cc3cnn(-c4ccc(F)cc4)c3C=C1CC[C@@]2(O)CCc1ccccc1CNCC(F)(F)F [Example 104, (4αS,5R)-1-(4-fluorophenyl)-4α-methyl-5-[2-[2-{[(2,2,2-trifluoroethyl)amino]methyl}phenyl)ethyl]-1,4,4α,5,6,7-hexahydrocyclopenta[f]indazol-5-ol]	5 to 100%
CC(=O)NCc1ccccc1CC[C@]1(O)CCC2=Cc3c(cnn3-c3ccc(F)cc3)C[C@@]21C [Example 105, N-(2-{2-[(4αS,5R)-1-(4-fluorophenyl)-5-hydroxy-4α-methyl-1,4,4α,5,6,7-hexahydrocyclopenta[f]indazol-5-yl]ethyl}benzyl)acetamide]	5 to 100%
